Where a name gives a salt, the structure may show the parent alone.
What was measured:
Type in all cases: physicochemical
[1] = Visible fluorescence under short (254 nm) and long (360 nm) ultraviolet light; conditions: in distilled water; visually in dark, 9 watt UV lamp at 6 inches
Source text: All three tracer substances Riboflavin, Folic Acid and Quinine have unique molecular structures that enable them to mix into base solutions with varying polar and non polar charges. Studies by the authors of the current embodiment have also shown that the substances show an affinity for organic matter residue (e.g. proteins, fats, oils, soil, mineral deposits, etc.). Riboflavin (B2),Folic Acid (B9) and Quinine are approved food additives (Codex General Standard for Food Additives, Codex STAN 192; Code of Federal Regulations Title 21 Sec. 184.1695; Sec. 73.450; Sec. 104.20, Sec. 101.9 and Sec. 172.575). […] Experiments by the inventors have shown that when Riboflavin and Quinine are combined in solution the two GRAS or food additive fluorophores fluoresce synergistically under long and short wave ultraviolet light. [table]

[2] = Detection sensitivity of tracers by UV fluorescence and spectrophotometer; conditions: for sensitivity of spectrophotometer absorption and transmission detection: tracers vs control samples
Source text: One method of detecting the presence of the food grade vitamin tracer(s) is by exciting the mixture, treated area or sample swab with ultraviolet light so that the vitamins fluoresce. Riboflavin fluorescence is the identifier for visual observations. Folic Acid fluoresces, but not in the visible spectrum. The color of light is related to the wavelength or frequency of the light. Visible light—to which our eyes are most sensitive—falls in the wavelength range of about 400 to 750 nm. In the absence of visible light and when Riboflavin is excited by long-wave ultraviolet light (maximum lambda=˜365 nm-below the visible spectrum) Riboflavin emits/fluoresces light waves in the visible spectrum (˜450 to 650) which are very distinguishable in the dark when the only other light source is from long (˜365 nm) and midrange (˜312 nm) ultraviolet light. This phenomenon enables visible detection of Riboflavin at levels as low as 1 ppm. It is well know that different compounds have unique absorption and transmission spectra. Another method of quantifying the presence of the food grade vitamin tracers Riboflavin and Folic Acid is by use of a spectrophotometer whereby wavelength absorption and transmission results of known tracers Vs control samples provide characteristic spectra analysis that can be used to determine the absence or presence with sensitivity down to 1 ppm.

[3] = Riboflavin fluorescence persistence in sanitizer and bleach base materials
Source text: FIG. 3 is a flow chart showing how the GRAS or food additive composition is mixed with sanitizer(s) or cleaning chemical(s) for visualization of cleaning efficacy so those trained in the art can validate or verify the hygienic condition of equipment or environments after cleaning. The steps involved with making the combined fluorescent additive and base material invention solution include; (1) select the base material and the specific volume that will be used for the application. It is important to know the composition of the base material, its physical properties and establish a set volume. For purposes of this embodiment, base material can be potable water or any of the various sanitation chemicals that has been approved for use in the food, beverage, pharmaceutical, feed industry by appropriate regulatory authorities. The base material will be approximately 95% of the total end product. Potable tap water is an excellent base material for combining with the embodiment composition to produce a solution that can be applied to equipment at any stage of the cleaning process prior final rinse. Quat sanitizers, liquid soaps and detergents have also been shown by the authors to be excellent base materials. Riboflavin mixed easily into solution when 1,000 ppm was added to KayQuat II (>1,000 ppm quaternary ammonia). Fluorescence was intense from day one through day 270 and has not diminished at the time of this publication. Similar tests were performed on Ajax Liquid Soap with Bleach Alternative with similar results.
It should be noted that bench top studies with concentrate hypochlorite solutions have been shown by the authors to rapidly quench Riboflavin fluorescence. […] Highly alkaline ammonia base material produced similar results. The authors were concerned that chlorinated alkaline detergents and/or foaming cleaners would quench the fluorescence of the embodiment composition so tests were performed to determine the effect.

[4] = 2,500 ppm added to a 30% solution of chlorine bleach

SMILES | Visual Fluorescence Long Wave (360 nm) [1] | Visual Fluorescence Short Wave (254 nm) [1] | sensitivity of spectrophotometer absorption and transmission detection [2] | Fluorescence from day one through day 270 ([3]; 1,000 ppm added to KayQuat II (>1,000 ppm quaternary ammonia)) | fluorescence after 8 hours [3, 4] | fluorescence observed for up to 4 hours [3, 4] | visible detection level ([2]; excited by long (~365 nm) and midrange (~312 nm) UV in the dark)
Cc1cc2nc3c(=O)[nH]c(=O)nc-3n(C[C@H](O)[C@H](O)[C@H](O)CO)c2cc1C [50 ppm Riboflavin USP in distilled water, Riboflavin] | Moderate | Very Slight | – | – | – | – | –
C=C[C@H]1C[N@@]2CC[C@H]1C[C@H]2[C@H](O)c1ccnc2ccc(OC)cc12 [Quinine Sulfate, Dihydrate] | Moderate | Slight | – | – | – | – | –
Nc1nc2ncc(CNc3ccc(C(=O)N[C@@H](CCC(=O)O)C(=O)O)cc3)nc2c(=O)[nH]1 [Folic Acid] | – | – | 1 ppm | – | – | – | –
Cc1cc2nc3c(=O)[nH]c(=O)nc-3n(C[C@H](O)[C@H](O)[C@H](O)CO)c2cc1C [Riboflavin] | – | – | 1 ppm | intense | diminished completely | Slight | 1 ppm
